Holding throughout (format): in vivo
One assay relates to hairy wart and foot rot. Description: Hoof spray of lactating cows: lameness, hairy wart and foot rot.
Assay [1] deals with turkeys. Description: Turkey mortality with water additive, flocks of 50,000 turkeys. On the set-up: mortality cumulative total per group: concentration or dose not given beside the values. From the text:
The mortality of the flock of 50,000 turkeys that consumed water with chlorine dioxide was 6.5% as compared to 3% for a flock of 50,000 turkeys consuming water with W+. The y-axis of FIG. 13 represents the cumulative total mortality (%), and the x-axis represents a 19-week period during which the turkeys were observed. The top dotted line represents a flock (of 50,000 turkeys) with chlorine dioxide added to their water. The middle dotted line represents a flock (of 50,000 turkeys) that for four weeks consumed water treated with chlorine dioxide (5 ppm). After four weeks, the water additive was changed to W+ diluted 1:10,000 (note the reduced slope of the mortality curve at week 5). The bottom solid line represents a flock (of 50,000 turkeys) that was fed water with W+.

Assay [2] relates to turkeys. Description: Turkey weight versus barn standard and mortality, six barns. From the text:
A common practice among commercial turkey growing facilities is to compare the weight gain of their flocks against a standard that is based on the performance of the grower's previous flocks. The grower has a standard for each barn, or group of barns, based on their recorded history. […] The flocks in the barns being fed W+ in their water (Barns-055, Barn-043, and Barn-025) exceeded standard weights by 11.7%, while the barns where the turkeys were fed water with chlorine dioxide (Barns-041, Barn-047, and Barn-045) were −7.6% compared to standard weights. The y-axis represents % deviation from a standard (Std)(average for each barn), and the x-axis represents data obtained from turkeys in six different barns (approximately 17,000 turkeys per barn).

Another assay concerns Clostridial scours. Description: Swine gut health: scours on test farm. As to conditions: total population of 3,850 swine; chlorine dioxide standard water protocol, then W+ 1:6,000 in water lines. The method, then: Scours (dysentery) is a common ailment in swine and is symptomatic of poor gut health (gastrointestinal tract health). […] Column (B) is the number of swine (397) that were infected with scours while on a standard water protocol of chlorine dioxide to prevent biofilm in the water lines. The addition of chlorine dioxide was stopped and W+ (at a dilution of 1:6,000) was added to the water lines, the number of swine with scours was reduced to 23 (Column (C)), a 94% reduction in the number of swine with Clostridial scours.

A further assay concerns Mastitis. Description: Teat spray of lactating dairy cows: somatic cell count and Mastitis. As to conditions: 210 lactating cows. The source says: The efficacy of iodine versus D+t128 in reducing the presence of Mastitis was studied. […] 210 lactating dairy cows were milked twice a day for four weeks. The somatic cell count (SCC) of the herd at the beginning of the test period was 263,000/ml, as shown in the two right-hand columns of the top panel of FIG. 21. The standard protocol using iodine was as follows: prior to each milking, the teats of the dairy cows were sprayed with 0.5% iodine. After each milking, the teats of the dairy cows were sprayed with 1.0% iodine. Mastitis was evident on 27 of the cows (see bottom panel of FIG. 21). Treatment with iodine was then stopped, and D+t128 was used to treat the teats of the cows. Prior to each milking, the teats of the dairy cows were sprayed with 1.25 ounces of D+t128 at a dilution of 1:128. After each milking, the teats of the dairy cows were sprayed with 1.25 ounces of D+t128 at a dilution of 1:128. At the end of the test period, the SSC had decreased from 263,000/ml to 120,000/ml in the herd treated with D+t128 (see two right-hand columns of the top panel of FIG. 21). The lower the SSC, the healthier the cow; the lower SSC reading correlates with the reduced number of cows with Mastitis. The number of cows with Mastitis had decreased from 27 to 12 (see two right-hand columns of bottom panel of FIG. 21). The SSC values are an average of all milk obtained from the 210 lactating cows. […]

As to `O=S(=O)([O-])[O-].[Cu+2]` [Copper-Sulphate], in the assay with hairy wart and foot rot (herd of 500 lactating cows, Copper-Sulphate spray = T0 start, D+h100 1:100 spray = day 35), the “percentage of lame cows” value was “over 35%”. The “cows with swelling indicating new hairy wart formation” value in the assay with hairy wart and foot rot (start of test period, prior Copper-Sulphate spray, data not shown) is recorded as 60%.
As for `[O][Cl+][O-]` [chlorine dioxide], the “mortality cumulative total per group” value stood at 0.74% in the assay with turkeys [1] (Week 1); 1.45% in the assay on turkeys [1] (Week 2); 1.84% in the assay on turkeys [1] (Week 3); 2.15% with turkeys [1] (Week 4); 3.52% with turkeys [1] (Week 5); 3.97% in the assay on turkeys [1] (Week 6). Further, the “mortality cumulative total per group” value in the assay with turkeys [1] (Week 7) was found to be 4.22%; in the assay on turkeys [1] (Week 8) it was 4.46%; with turkeys [1] (Week 9), 4.62%; in the assay on turkeys [1] (Week 10), 4.79%; in the assay on turkeys [1] (Week 11) it was 5.01%; with turkeys [1] (Week 12), 5.14%. For the same compound, the “mortality cumulative total per group” value is given as 5.29% in the assay on turkeys [1] (Week 13); 5.46% with turkeys [1] (Week 14); 5.63% with turkeys [1] (Week 15); 5.82% in the assay on turkeys [1] (Week 16); 6.05% with turkeys [1] (Week 17); 6.29% in the assay with turkeys [1] (Week 18). Besides, the entries for the “mortality cumulative total per group” value with turkeys [1] (Week 19), with turkeys [1] (Week 20) and in the assay with turkeys [1] (Week 21) were 6.54%, 6.84% and 6.74%, respectively. For the same compound, the “mortality of the flock (cumulative total)” value with turkeys [1] (flock of 50,000 turkeys, FIG. 13, 19-week period, W+ 1:10,000, chlorine dioxide 5 ppm in water) was determined as 6.5%. Further, in the assay with turkeys [2] (FIG. 23, turkeys fed water with additive), the “mortality rate (average)” value came to 12.3%. In the assay with turkeys [2] (three barns per water additive, approximately 17,000 turkeys per barn, FIG. 14), the “deviation from standard weights” value was −7.6%. In the assay on Clostridial scours, the “number of swine infected with scours” value is given as 397.
For the compound `II` [iodine], in the assay with Mastitis (iodine protocol = beginning of test period, D+t128 1:128 teat spray before and after each milking = end of 28-day test period), the “somatic cell count (SCC) of the herd” value is recorded as 263,000 /ml. Further, in the assay on Mastitis (iodine protocol = start, D+t128 1:128 = finish of 28-day test period), the “number of cows with Mastitis” value came to 27.
